According to ChEMBL document CHEMBL5241068, “Biguanides: Species with versatile therapeutic applications” (Eur J Med Chem, 2021):

Assays:
[1] = Inhibition of Brugia malayi DHFR
[2] = Inhibition of quorum sensing system in Chromobacterium violaceum CV12472
[3] = test system: A2780; experiment: Antiproliferative activity against human A2780 cells; assay type: functional, cell-based
[4] = test system: FaDu; experiment: Anticancer activity against human FaDu cells; assay type: functional, cell-based
[5] = test system: C6661; experiment: Anticancer activity against human C6661 cells; assay type: functional, cell-based
[6] = Lipophilicity, logP of the compound; assay type: physicochemical; details: octanol/water
[7] = test system: SK-OV-3; experiment: Antiproliferative activity against human SK-OV-3 cells incubated for 72 hrs by MTT assay; assay type: functional, cell-based; details: SK-OV-3, 72 h
[8] = test system: IGROV-1; experiment: Antiproliferative activity against human IGROV-1 cells incubated for 72 hrs by MTT assay; assay type: functional, cell-based; details: IGROV-1, 72 h
[9] = test system: MDA-MB-231; experiment: Antiproliferative activity against human MDA-MB-231 cells in presence of phenformin; assay type: functional, cell-based
[10] = test system: T47D; experiment: Antiproliferative activity against human T47D cells in presence of phenformin; assay type: functional, cell-based
[11] = target: Replicase polyprotein 1ab (Severe acute respiratory syndrome coronavirus 2) (UniProt P0DTD1); experiment: Binding affinity to SARS CoV-2 3CL protease assessed as gibbs free energy change
[12] = Inhibition of Toxoplasma gondii DHFR
[13] = Selectivity index, ratio of IC50 for rat liver DHFR to IC50 for Toxoplasma gondii DHFR
[14] = test system: Escherichia coli; experiment: Bactericidal activity against Escherichia coli assessed as time required to kill the bacteria at 95 uM; assay type: functional
[15] = Cmax in mouse at 1 mg/kg, po; assay type: ADME, organism-based; set-up: dose 1 mg/kg, route po; details: in vivo
[16] = Elimination half life in mouse at 1 mg/kg, po; assay type: ADME, organism-based; details: in vivo, read-out: beta t1/2 (converted)
[17] = Solubility of compound at pH 8; assay type: physicochemical; details: buffer

## COc1cc(Cc2cnc(N)nc2N)cc(OC)c1OC [TRIMETHOPRIM]
[1]
  IC50: 12.9 µM

## NC(N)=N/C(N)=N/c1ccc(OCc2cccc(Cl)c2)cc1
[1]
  IC50: 16.7 µM

## N=C(N=C(N)N)N(Cc1ccccc1)c1ccccc1
[2]
  IC50: 179 µM

## NC(N)=N/C(N)=N/CCOc1ccn(-c2ccc(Cl)cc2)n1
[3]
  IC50: 6.9 µM

## CCCC[C@@H](CC)CNC(=N)NC(=N)NCCCCCCNC(=N)NC(=N)NC[C@H](CC)CCCC
[4]
  EC50: 1.8 µM
[5]
  EC50: 2.6 µM

## N=C(NCCCCCCCCCCNC(=N)Nc1ncc(Cl)cn1)Nc1ncc(Cl)cn1
[6]
  logP: 5.5

## CC1(C)N=C(N)N=C(N)N1c1ccc(OCc2ccc(Cl)cc2Cl)cc1
[1]
  IC50: 5.73 µM

## Clc1ccc(Nc2ccnc(Nc3ccc(Cl)cc3)n2)cc1
[6]
  logP: 5.5

## CN(C)C(=N)NC(=N)N [METFORMIN]
[7]
  IC50: 150 µM
[8]
  IC50: 850 µM
[9]
  IC50: 4010 µM
[10]
  IC50: 9400 µM
[11]
  deltaG: -6.72 kcal/mol

## NC(N)=N/C(N)=N/c1ccc(OCc2ccc(Cl)cc2Cl)cc1
[1]
  IC50: 6.31 µM

## CC1(C)N=C(N)N=C(N)N1c1ccc(OCc2ccc(-c3ccccc3)cc2)cc1
[12]
  IC50: 0.012 µM
[13]
  Ratio IC50: 2.15

## N=C(N=C(N)N)N(c1ccccc1)c1ccc(N)cc1
[2]
  IC50: 120 µM

## C=CC(=O)OCCc1ccc(/N=C(N)/N=C(\N)Nc2ccc(Cl)cc2)cc1.Cl
[14]
  Time: 30 min

## CN(C)C(=N)N=C(N)N [METFORMIN]
[15]
  Cmax: 2000 ng/mL
[16]
  half-life: 6 h

## CCc1nc(N)nc(N)c1-c1ccc(Cl)cc1 [PYRIMETHAMINE]
[1]
  IC50: 20.1 µM

## Cl.N=C(N)NC(=N)N1CCOCC1
[17]
  solubility: 360 mg/mL
[11]
  deltaG: -2.11 kcal/mol

## N=C(NCCCCCCCCCCCCNC(=N)Nc1ncc(Cl)cn1)Nc1ncc(Cl)cn1
[6]
  logP: 5.5

## NC(N)=N/C(N)=N/Cc1ccco1
[7]
  IC50: 380 µM
[8]
  IC50: 150 µM

## NC(N)=N/C(N)=N/c1ccc(OCc2ccc(-c3ccccc3)cc2)cc1
[1]
  IC50: < 5.83 µM
